Assay results taken from the NIST ThermoML archive (doi:10.1021/acs.jced.8b01099).
Numbers after ± are expanded uncertainties.

Legend:
[1] = Molar enthalpy of transition or fusion; details: Crystal; DSC
[2] = Crystal; DSC

## CC(C)N1C(=O)N(c2ccccc2)CSC1=NC(C)(C)C [buprofezin]
[1]
  Molar enthalpy of transition or fusion: 7.18 ± 0.239 kcal/mol
[2]
  Triple point temperature: 377.95 ± 1.2 K
